Reference: patent US11261201B2 (priority 2018, dated 2022)
≈ marks a conversion by molar mass, not a printed value. Read-outs that look alike come from different tables or passages of the source.

How the values were obtained:
A. baumannii = experiment: Gram negative MIC protocol (OD600, LB, 24 h); conditions: Acinetobacter baumannii
Experimental: (§1) Overnight bacterial cultures were grown in LB with no added antibiotics at 37° C. with shaking. A 1:1000 dilution of these cultures into LB was exposed to concentration gradients of compounds in 96-well plates (100 μL per well assay volume). Resulting plates were incubated at 37° C. for 24 h without shaking, and OD600 was measured at the end of the incubation. MICs were determined as the lowest concentrations at which OD600 remained at baseline.

E. coli = experiment: Gram negative MIC protocol (OD600, LB, 24 h); conditions: Escherichia coli
Experimental: as §1

H37RvMA = experiment: Tuberculosis Alamar Blue/Resazurin assay (MIC); type: cell-based; conditions: Mycobacterium tuberculosis, H37RV, read-out: WT H37Rv MTB Activity
E. coli K-12 = experiment: Resistance development on LB-agar plates, combination therapy; conditions: B1 in combination with anti-LeuS Tavaborole, adjusted for dose equivalence; 10^8 cells plated, 37° C., 24 hours; multiple independent experiments (FIG. 1)
Experimental: Experimental details: Cultures of E. coli K-12 were started from single colonies on LB-agar plates and were grown in LB for 36 hours with shaking at 37° C. Following that, 10^8 cells were plated on LB-agar plates containing B1 or Tavaborole alone or in combination adjusted for dose equivalence and incubated at 37° C. for 24 hours.

[1] = read-out: MIC E. coli delta-TolC LB Media, E. coli delta-TolC, LB media, OD600
[2] = read-out: MIC WT E. coli LB Media, WT E. coli, LB media, OD600
[3] = read-out: MIC A. baumannii LB Media, A. baumannii, LB media, 24 h, OD600

Structure (SMILES)	MIC (A. baumannii; read-out: MIC A. baumannii LB Media) [µM]	MIC (E. coli; [1]) [µM]	MIC (E. coli; [2]) [µM]	MIC (H37RvMA) [µM]	development of resistance (E. coli K-12)	MIC (A. baumannii; [3]) [µM]	MIC (H37RvMA; WT H37Rv MTB) [µM]
C1=C(CCNCc2ccccc2)CCCC1 [B1, N-benzyl-2-(cyclohex-1-en-1-yl)ethan-1-amine]	150 (≈ 32.3 µg/mL)	46 (≈ 9.91 µg/mL)	60 (≈ 12.9 µg/mL)	> 150	did not develop resistance	–	–
CC1CCC(NC(=O)NS(=O)(=O)Cc2ccccc2CNC(C)CC2CCCCC2)CC1 (stereo not shown) [B450, 1-(2-(((1-cyclohexylpropan-2-yl)amino)methyl)phenyl)-N-((4-methylcyclohexyl)carbamoyl)methanesulfonamide]	–	150 (≈ 69.6 µg/mL)	> 150	–	–	> 150	150 (≈ 69.6 µg/mL)
CC(CC1CCCCC1)NCc1ccccc1CCS(N)(=O)=O (stereo not shown) [B451, 2-(2-(((1-cyclohexylpropan-2-yl)amino)methyl)phenyl)ethane-1-sulfonamide]	–	4 (≈ 1.35 µg/mL)	55 (≈ 18.6 µg/mL)	–	–	150 (≈ 50.8 µg/mL)	> 150
CC(CC1CCCCC1)NCc1ccccc1CS(=O)(=O)NCC(=O)NCC(=O)O (stereo not shown) [B452, ((2-(((1-cyclohexylpropan-2-yl)amino)methyl)benzyl)sulfonyl)glycylglycine]	–	> 150	> 150	–	–	> 150	> 150
CC(CC1CCCCC1)NCc1ccccc1CS(=O)(=O)N[C@H]1C[C@@H](C(=O)O)C1 (stereo partly drawn) [B453, (1S,3S)-3-(((2-(((1-cyclohexylpropan-2-yl)amino)methyl)phenyl)methyl)sulfonamido)cyclobutane-1-carboxylic acid]	–	20 (≈ 8.45 µg/mL)	> 150	–	–	> 150	> 150
CC(CC1CCCCC1)NCc1ccccc1CS(=O)(=O)N[C@@H](C)C(=O)O (stereo partly drawn) [B454, ((2-(((1-cyclohexylpropan-2-yl)amino)methyl)benzyl)sulfonyl)-L-alanine]	–	91 (≈ 36.1 µg/mL)	> 150	–	–	> 150	> 150
CC(CC1CCCCC1)NCc1ccccc1CS(=O)(=O)N[C@H](C)C(=O)O (stereo partly drawn) [B455, ((2-(((1-cyclohexylpropan-2-yl)amino)methyl)benzyl)sulfonyl)-D-alanine]	–	91 (≈ 36.1 µg/mL)	> 150	–	–	> 150	> 150
CC(CC1CCCCC1)NCc1ccccc1CS(=O)(=O)N[C@H]1C[C@H](C(=O)O)C1 (stereo partly drawn) [B456, (1S,3S)-3-(((2-(((1-cyclohexylpropan-2-yl)amino)methyl)phenyl)methyl)sulfonamido)cyclobutane-1-carboxylic acid]	–	33 (≈ 13.9 µg/mL)	> 150	–	–	> 150	> 150
CC(CC1CCCCC1)NCc1ccccc1CS(=O)(=O)Nc1cccc(B(O)O)c1 (stereo not shown) [B457, (3-(((2-(((1-cyclohexylpropan-2-yl)amino)methyl)phenyl)methyl)sulfonamido)phenyl)boronic acid]	–	< 1	33 (≈ 14.7 µg/mL)	–	–	33 (≈ 14.7 µg/mL)	> 55
CC(CC1CCCCC1)NCc1ccccc1OCc1ccccc1C(C)C (stereo not shown) [B458, 1-cyclohexyl-N-(2-((2-isopropylbenzyl)oxy)benzyl)propan-2-amine]	–	4 (≈ 1.52 µg/mL)	> 150	–	–	20 (≈ 7.59 µg/mL)	10 (≈ 3.8 µg/mL)
COc1cccc(COc2ccccc2CNC(C)CC2CCCCC2)c1 (stereo not shown) [B459, 1-cyclohexyl-N-(2-((3-methoxybenzyl)oxy)benzyl)propan-2-amine]	–	2 (≈ 0.735 µg/mL)	55 (≈ 20.2 µg/mL)	–	–	91 (≈ 33.4 µg/mL)	17 (≈ 6.25 µg/mL)
Cc1ccc(COc2ccccc2CNC(C)CC2CCCCC2)cc1 (stereo not shown) [B460, 1-cyclohexyl-N-(2-((4-methylbenzyl)oxy)benzyl)propan-2-amine]	–	< 1	33 (≈ 11.6 µg/mL)	–	–	33 (≈ 11.6 µg/mL)	10 (≈ 3.52 µg/mL)
Cc1cccc(COc2ccccc2CNC(C)CC2CCCCC2)c1 (stereo not shown) [B461, 1-cyclohexyl-N-(2-((3-methylbenzyl)oxy)benzyl)propan-2-amine]	–	< 1	33 (≈ 11.6 µg/mL)	–	–	33 (≈ 11.6 µg/mL)	10 (≈ 3.52 µg/mL)
CC(CC1CCCCC1)NCc1ccccc1OCc1ccccc1C1CC1 (stereo not shown) [B462, 1-cyclohexyl-N-(2-((2-cyclopropylbenzyl)oxy)benzyl)propan-2-amine]	–	4 (≈ 1.51 µg/mL)	> 150	–	–	33 (≈ 12.5 µg/mL)	10 (≈ 3.78 µg/mL)
CC(CC1CCCCC1)NCc1ccccc1OCc1ccccc1Oc1ccccc1 (stereo not shown) [B463, 1-cyclohexyl-N-(2-((2-phenoxybenzyl)oxy)benzyl)propan-2-amine]	–	4 (≈ 1.72 µg/mL)	> 150	–	–	> 150	17 (≈ 7.3 µg/mL)
CC1CCCC(CCN2Cc3ccccc3CC2=O)C1 (stereo not shown) [B464, 2-(2-(3-methylcyclohexyl)ethyl)-1,4-dihydroisoquinolin-3(2H)-one]	–	90 (≈ 24.4 µg/mL)	> 150	–	–	> 150	2 (≈ 0.543 µg/mL)
CC1CCC(CC(C)NCc2ccccc2OCc2ccccc2F)CC1 (stereo not shown) [B465, N-(2-((2-fluorobenzyl)oxy)benzyl)-1-(4-methylcyclohexyl)propan-2-amine]	–	7 (≈ 2.59 µg/mL)	> 150	–	–	90 (≈ 33.3 µg/mL)	20 (≈ 7.39 µg/mL)
CC(CC1CCCCC1)NCc1ccccc1CC(N)C(=O)O (stereo not shown) [B466, 2-amino-3-(2-(((1-cyclohexylpropan-2-yl)amino)methyl)phenyl)propanoic acid]	–	> 150	> 150	–	–	> 150	> 55
